Read-outs that look alike come from different tables or passages of the source.
Columns and labels:
[1] = system: HIV-1 (RF strain); format: cell-based; conditions: for HIV Replication (Day 4), p24: single agent, human PBMCs, Table 2; for changes in the level of HIV p24 after either 4 or 8 days: single agents at the concentrations of Table 2
Description: Freshly isolated human blood lymphocytes and monocytes were infected with HIV-1 (RF strain) and then incubated for an additional 3 days in the presence of compounds alone or in combinations or left untreated. At the end of 4 days, the infected cells were briefly centrifuged. The supernatant was collected and used to titer HIV p24, using an enzyme-linked immunosorbent assay (ELISA). The cell pellets were washed two times with medium lacking any inhibitors, and the washed human peripheral blood mononuclear cells (PBMCs) were mixed 1:1 with MT-2 lymphocytes and incubated for an additional 4 days absent any inhibitors. All cells were then removed by centrifugation and the supernatant was again assayed for p24 levels by ELISA.
Viral p24 produced by HIV-1 (RF) infected cells was quantified to determine the effects of a cytotoxic drug and efavirenz alone or in combination. On day one, 5.25×10^e6 donor PBMCs (stimulated by PHA/IL-2 for 72 hours in RPMI tissue culture medium were centrifuged at 1,000 rpm for 10 minutes and the supernatant fluid was decanted. Using 50% tissue culture infectious dose (TCID50) estimated from the viral stock titration procedure (PRR 97-04), 5.25×10^6 PBMCs were infected with 5.2×10^3 TCID50 of virus (M. O. I. ˜0.001). Cells were resuspended, the virus stock added, and incubated at 37° C. for one hour. RPMI was added to the infected PBMCs and unabsorbed virus in the supernatant fluid was removed following centrifugation. The cells were resuspended in 10 mL RPMI (20% FCS, 30 units IL-2/mL) and placed in a 25 cm^2 tissue culture flask. The virus control flask contained infected cells only. Similar flasks contained efavirenz or the cytotoxic drug added separately or in combination. Flasks were incubated at 37° C., in 5% CO2 for 3 days. On day 4, the contents of each flask were centrifuged and the supernatant, inactivated with 0.5% Triton X-100, was frozen at −70° C. for p24 analysis. The infected PBMCs were resuspended in RPMI, centrifuged again, and the supernatant discarded to remove residual drugs. The pellets were resuspended in each flask, and 1×10^e6 MT-2 cells were added. The final volume was 10 mL RPMI (5% FCS) per flask. After 4 more days of incubation (day 8), supernatant from each flask was inactivated with Triton X-100 and frozen at −70° C. The p24 antigen concentration of viral supernatants from days 4 and 8 was determined using the NEN Life Science Products HIV-1 p24 antigen capture assay.

[2] = system: HIV-1 (RF strain); format: cell-based; conditions: for Infectious Centers (Day 8), p24: single agent, PBMCs washed, co-cultivated with MT-2, Table 2
[3] = Toxicity of compounds for uninfected MT-2 cells (MTT assay); conditions: human
From the text: (§1) In order to test whether some external death stimuli, which are independent of bcl-2 (Reed, 1994), may not selectively kill HIV-infected cells, we exposed uninfected and HIV-infected cells to various chemical toxins, including losoxantrone, bisnafide, etoposide and hydroxyurea. […] Therefore, we proceeded to examine whether either losoxantrone or etoposide were able to selectively kill HIV-infected cells.
(§2) The concentration of the cytotoxic drugs losoxantrone, etoposide or hydroxyurea required to reduce cell viability by 50% (TC50) was determined with or without virus infection. Graded concentrations of drug in RPMI (5% FCS) were added to a 96-well microtiter plate. 1×10^e5 cells were added per well. Cell control wells contained cells in RPMI only. Plates were incubated at 37° C., 5% CO2 for 3 days. The tetrazolium dye (3-4,5-dimethylthiazol-2yl)-2,5-diphenyltetrazolium bromide (MTT) was used to assess the number of viable cells. After the 3-day incubation period, 10 μL of MTT (5 mg/mL in 1×PBS) was added to each well. Following a 2 hour incubation at 37° C., 150 μL was removed from each well and 200 μL of 0.04 N HCl in isopropanol was added. The contents of each well were mixed and the quantity of reduced dye was measured by absorbance at 570 nm. The concentration of compound producing a 50% reduction in signal relative to the untreated cultures (TC50) was determined.

[4] = system: human T-lymphocytes (MT-2) infected with HIV-1; assay: Toxicity of compounds for HIV-1-infected MT-2 cells (MTT assay); conditions: for killing of infected cells relative to uninfected lymphocytes: after 24 hours, losoxantrone 10 nM, etoposide 100 nM
From the text: as §1
as §2, with “Plates were incubated at 37° C., 5% CO2 for 3 days.” left out, “After the 3-day incubation period, 10 μL of MTT (5 mg/mL in 1×PBS) was added to each well.” left out

[5] = system: PBMC; assay: Inhibition of PBMC cell division; format: cell-based, human; conditions: 100 μM
[6] = system: human T-lymphocytes (MT-2); assay: Toxicity of compounds for uninfected MT-2 cells (MTT assay)
From the text: as §1, §2

[7] = Homo sapiens, T-lymphocyte, read-out: Viable Cells (% Remaining) +HIV

SMILES	changes in the level of HIV p24 after either 4 or 8 days [1]	HIV Replication (Day 4), p24 ([1]; 10 nM)	Infectious Centers (Day 8), p24 ([2]; 10 nM)	viability at 0.01 µM [4, 7]	killing of infected cells relative to uninfected lymphocytes [4]	other results
Nc1cccc(CN2C(=O)N(Cc3cccc(N)c3)[C@H](Cc3ccccc3)[C@H](O)[C@@H](O)[C@H]2Cc2ccccc2)c1 [Compound E, [4R-(4α, 5α, 6β, 7β]-1,3-bis (3-aminophenylmethyl]hexahydro-5,6-dihydroxy-4,7-bis (phenlymethyl-2H-1,3-diazepin-2-one dimethylsulfonate]	only small changes	–	–	–	–	HIV Replication (Day 4), p24 ([1]; 100 nM): 25000 pg/mL; Infectious Centers (Day 8), p24 ([2]; 100 nM): 350000 pg/mL
O=C1Nc2ccc(Cl)cc2[C@@](C#CC2CC2)(C(F)(F)F)O1 [efavirenz]	only small changes	15000 pg/mL	200000 pg/mL	82%	–	viability at 24 h, 0.01 µM ([3]; uninfected MT-2 T-lymphocytes): 81%
COc1cc([C@@H]2c3cc4c(cc3[C@@H](O[C@@H]3O[C@@H]5CO[C@@H](C)O[C@H]5[C@H](O)[C@H]3O)[C@H]3COC(=O)[C@H]23)OCO4)cc(OC)c1O [etoposide]	–	–	–	–	6 fold	p24 results when substituted for losoxantrone ([2]; compared with the losoxantrone results, not shown): very similar; viability at 24 h, 0.1 µM [3]: 71%; viability at 0.1 µM [4, 7]: 12%
NC(=O)NO [hydroxyurea]	–	–	–	–	–	inhibition of PBMC cell division [5]: 3 fold
O=C1c2c(O)cccc2-c2nn(CCNCCO)c3ccc(NCCNCCO)c1c23 [losoxantrone]	only small changes	200000 pg/mL	700000 pg/mL	4%	5 fold	increase in p24 titers ([1]; 10 nM, days 4 and 8): 3 to 7 fold; viability at 24 h, 0.01 µM [3]: 68%; concentration with evidence of substantial toxicity to uninfected cells [6]: ≥ 10 nM; range of concentrations that show selectivity for infected cells ([4]; cell survival, infected vs. control cells): 0.1 to 10 nM

Reference: US6649644B1, “Method of treating HIV infection by combined use of a cytotoxic agent and a non-nucleoside reverse transcriptase inhibitor” (priority 1998, dated 2003)
